Four compounds from patent EP0432183B1, “NEW CITYDIN-5'-DIPHOSPHATE ALKANOLS AND GLYCEROLS, A PROCESS FOR PREPARING THEM AND THEIR USE” (Clarion Pharmaceuticals, Inc., priority 1988, dated 1990) can be followed below.

The subject of this test is Ehrlich Ascites-Tumorzellen. The test is described as follows: Concentration-dependent growth inhibition of Ehrlich ascites tumour cells (antiproliferative effect). Format: cell-based. To be noted: Wachstumshemmung, read-out: Hemmung (%); for inhibition at 3 µM: Konzentration 3 μmolar; for inhibition at 10 µM: Konzentration 10 μmolar; for inhibition at 30 µM: Konzentration 30 μmolar; for inhibition at 100 µM: Konzentration 100 μmolar. An excerpt: Zur Bestimmung der cytostatischen Wirkung wurde die antiproliferative Wirkung bei Ehrlich-Ascites Tumorzellen untersucht. Dabei zeigte sich, daß die erfindungsgemäßen Verbindungen ausgezeichnete cytostatische Wirkung aufweisen. Sie können daher allein oder in Mischung mit anderen Wirksubstanzen in Form üblicher galenischer Zubereitungen als Cytostatika oder Virustatika eingesetzt werden.
Konzentrationsabhängige Wachstumshemmung von Ehrlich Ascites-Tumorzellen.

Each structure is given as a SMILES string.

As for `CCCCCCCCCCCCCCCCOP(=O)(O)OP(=O)(O)OC[C@H]1O[C@@H](n2ccc(N)nc2=O)[C@H](O)[C@@H]1O` [Bsp. 1, Cytidin-5'-diphosphat-hexadekanol], the inhibition at 3 µM was found to be 12%, the inhibition at 10 µM was found to be 19%, the inhibition at 30 µM is 46% and the inhibition at 100 µM was 31%.
The corresponding values for `CCCCCCCCCCCCCCCCOCC(COP(=O)(O)OP(=O)(O)OC[C@H]1O[C@@H](n2ccc(N)nc2=O)[C@H](O)[C@@H]1O)OCC(F)(F)F` (stereo partly shown) [Bsp. 2, Cytidin-5'-diphosphat-1-0-hexadecyl-2-0-(2,2,2-trifluorethyl)glycerol] are 9.5%, 30%, 86% and 100%.
`CCCCCCCCCCCCCCCCOCC(CCl)OP(=O)(O)OP(=O)(O)OC[C@H]1O[C@@H](n2ccc(N)nc2=O)[C@H](O)[C@@H]1O` (stereo partly shown) [Bsp. 3, Cytidin-5'-diphosphat-3-chlor-3-desoxy-1-0-hexadecylglycerol]: the inhibition at 3 µM stood at 12%, the inhibition at 10 µM is 17%, the inhibition at 30 µM turned out to be 29% and the inhibition at 100 µM turned out to be 69%.
The corresponding values for `CCCCCCCCCCCCCCCCOCC(Cl)COP(=O)(O)OP(=O)(O)OC[C@H]1O[C@@H](n2ccc(N)nc2=O)[C@H](O)[C@@H]1O` (stereo partly shown) [Bsp. 4, Cytidin-5'-diphosphat-2-chlor-2-desoxy-1-0-hexadecylglycerol] are 18%, 38%, 67% and 94%.
